For the assay, the system named is SJSA-1 cells. In words: Protocol B: SJSA-1 CellTiter-Glo luminescent cell viability assay.
[1] abbreviates: Homo sapiens, SJSA-1, read-out: SJSA1 IC50 (μM) (Protocol B), SJSA-1, Protocol B.
Setting [2] is: read-out: SJSA1 IC50 (μM) (Protocol B), SJSA-1, Protocol B.

Where two headings read alike, the source gives them in different places.

As for `CN(C)CC(C)(O)c1cc(F)c2c(c1)C(=O)N(Cc1ccc(Cl)cn1)[C@@]2(O[C@H]1CCOC1)c1ccc(Cl)cc1` (single isomer, unassigned) [Example 138], under setting [1], the IC50 turned out to be 0.56 µM.
Consider `CCOCC(C)(O)c1cc(F)c2c(c1)C(=O)N(Cc1ccc(Cl)cn1)[C@@]2(O[C@H]1CCOC1)c1ccc(Cl)cc1` (single isomer, unassigned) [Example 140], for which the half-maximal inhibitory concentration (IC50) under setting [2] turned out to be 0.23 µM.
Same read-out and setting: with `CCOCC(C)(O)c1cc(F)c2c(c1)C(=O)N(Cc1ccc(Cl)cn1)[C@@]2(O[C@H]1CCOC1)c1ccc(Cl)cc1` (single isomer, unassigned) [Example 141] the figure was 1.8 µM; with `[2H]C([2H])([2H])OCC(C)(O)c1cc(F)c2c(c1)C(=O)N(C([2H])([2H])c1ccc(Cl)cn1)[C@@]2(O[C@H]1CCOC1)c1ccc(Cl)cc1` (single isomer, unassigned) [Example 142], 0.23 µM.
Still for that read-out and setting: with `[2H]C([2H])([2H])OCC(C)(O)c1cc(F)c2c(c1)C(=O)N(C([2H])([2H])c1ccc(Cl)cn1)[C@@]2(O[C@H]1CCOC1)c1ccc(Cl)cc1` (single isomer, unassigned) [Example 143] the figure was 0.86 µM.
For the molecule `CO[C@]1(c2ccc(Cl)cc2)c2c(F)cc(C(C)(O)c3ncc[nH]3)cc2C(=O)N1Cc1ccc(Cl)cn1` (single isomer, unassigned) [Example 164], the IC50 under setting [2] is 2.2 µM.
Same read-out and setting: the value for `CO[C@]1(c2ccc(Cl)cc2)c2c(F)cc(C(C)(O)c3nccs3)cc2C(=O)N1Cc1ccc(Cl)cn1` (single isomer, unassigned) [Example 166] was 3.8 µM.
In the case of `Cn1cc(C(C)(O)c2cc(F)c3c(c2)C(=O)N(Cc2ccc(Cl)cn2)[C@@]3(OCC2(C(N)=O)CC2)c2ccc(Cl)cc2)cn1` (single isomer, unassigned) [Example 178], the IC50 under setting [1] was 0.1 µM.
`CCn1cc(C(C)(O)c2cc(F)c3c(c2)C(=O)N(Cc2ccc(Cl)cn2)[C@@]3(OCC2(C(N)=O)CC2)c2ccc(Cl)cc2)cn1` (single isomer, unassigned) [Example 180]: the half-maximal inhibitory concentration (IC50) under setting [1] was determined as 0.16 µM.
For the molecule `CCn1cc(C(C)(O)c2cc(F)c3c(c2)C(=O)N(Cc2ccc(Cl)cn2)[C@@]3(OCC2(O)CC2)c2ccc(Cl)cc2)cn1` (single isomer, unassigned) [Example 183], the IC50 under setting [2] stood at 0.43 µM.
With `CCn1cc(C(C)(O)c2cc(F)c3c(c2)C(=O)N(Cc2ccc(Cl)cn2)[C@@]3(OCC2(O)CC2)c2ccc(Cl)cc2)cn1` (single isomer, unassigned) [Example 184], the concentration for half-maximal inhibition (IC50) under setting [2] amounted to 0.14 µM.
The same measure, in the same setting: with `Cc1nnc(C(C)(O)c2cc(F)c3c(c2)C(=O)N(Cc2ccc(Cl)cn2)[C@@]3(OCC2(O)CC2)c2ccc(Cl)cc2)o1` (single isomer, unassigned) [Example 185] the figure was 2.2 µM; with `Cc1nnc(C(C)(O)c2cc(F)c3c(c2)C(=O)N(Cc2ccc(Cl)cn2)[C@@]3(OCC2(O)CC2)c2ccc(Cl)cc2)o1` (single isomer, unassigned) [Example 186], 0.42 µM.
As for `CO[C@]1(c2ccc(Cl)cc2)c2c(F)cc(C(C)(O)c3cn(C)nn3)cc2C(=O)N1Cc1ccc(Cl)cn1` (single isomer, unassigned) [Example 187], under setting [1], the 50% inhibitory concentration (IC50) was 0.89 µM.
For the molecule `CO[C@]1(c2ccc(Cl)cc2)c2c(F)cc(C(C)(O)c3ccn(C)n3)cc2C(=O)N1Cc1ccc(Cl)cn1` (single isomer, unassigned) [Example 189], the IC50 under setting [2] was 1 µM.
For the molecule `CO[C@]1(c2ccc(Cl)cc2)c2c(F)cc(C(C)(O)c3ccn(C)n3)cc2C(=O)N1Cc1ccc(Cl)cn1` (single isomer, unassigned) [Example 190], under setting [2], the half-maximal inhibitory concentration (IC50) was found to be 5 µM.
Consider `CC(O)(c1cc(F)c2c(c1)C(=O)N(Cc1ccc(Cl)cn1)[C@@]2(OCC1(C(N)=O)CC1)c1ccc(Cl)cc1)c1cscn1` (single isomer, unassigned) [Example 193], for which, under setting [1], the IC50 came out at 0.14 µM.
With `Cn1cnc(C(C)(O)c2cc(F)c3c(c2)C(=O)N(Cc2ccc(Cl)cn2)[C@@]3(OCC2(O)CC2)c2ccc(Cl)cc2)c1` (single isomer, unassigned) [Example 195], the 50% inhibitory concentration (IC50) under setting [2] was 0.61 µM.
The same measure, in the same setting: the value for `Cn1cnc(C(C)(O)c2cc(F)c3c(c2)C(=O)N(Cc2ccc(Cl)cn2)[C@@]3(OCC2(O)CC2)c2ccc(Cl)cc2)c1` (single isomer, unassigned) [Example 196] was 0.15 µM.
Turning to `Cc1nc(C(C)(O)c2cc(F)c3c(c2)C(=O)N(Cc2ccc(Cl)cn2)[C@@]3(OCC2(C(N)=O)CC2)c2ccc(Cl)cc2)cn1C` (single isomer, unassigned) [Example 197], under setting [1], the concentration for half-maximal inhibition (IC50) amounted to 0.21 µM.
For `Cn1cc(C(C)(O)c2cc(F)c3c(c2)C(=O)N(Cc2ccc(Cl)cn2)[C@@]3(OCC2(O)CC2)c2ccc(Cl)cc2)cn1` (single isomer, unassigned) [Example 199], under setting [2], the IC50 turned out to be 0.83 µM.
The same measure, in the same setting: with `Cn1cc(C(C)(O)c2cc(F)c3c(c2)C(=O)N(Cc2ccc(Cl)cn2)[C@@]3(OCC2(O)CC2)c2ccc(Cl)cc2)cn1` (single isomer, unassigned) [Example 200] the figure was 0.099 µM; with `Cn1cc(C(C)(O)c2cc(F)c3c(c2)C(=O)N(Cc2ccc(Cl)cn2)[C@@]3(OCC2(C#N)CC2)c2ccc(Cl)cc2)cn1` (single isomer, unassigned) [Example 201], 0.76 µM.
In the case of `Cn1cc(C(C)(O)c2cc(F)c3c(c2)C(=O)N(Cc2ccc(Cl)cn2)[C@@]3(OCC2(C#N)CC2)c2ccc(Cl)cc2)cn1` (single isomer, unassigned) [Example 202], under setting [2], the IC50 amounted to 0.11 µM.
The same measure, in the same setting: with `Cn1cc(C(C)(O)c2cc(F)c3c(c2)C(=O)N(Cc2ncc(Cl)cn2)[C@@]3(OCC2(O)CC2)c2ccc(Cl)cc2)cn1` (single isomer, unassigned) [Example 203] the figure was 0.08 µM; with `Cn1cc(C(C)(O)c2cc(F)c3c(c2)C(=O)N(Cc2ncc(Cl)cn2)[C@@]3(OCC2(O)CC2)c2ccc(Cl)cc2)cn1` (single isomer, unassigned) [Example 204], 0.94 µM; with `CC(O)(CN1CCCC1)c1cc(F)c2c(c1)C(=O)N(Cc1ccc(C#N)cn1)[C@@]2(OCC1(C#N)CC1)c1ccc(Cl)cc1` (single isomer, unassigned) [Example 276], 2.5 µM.
The same measure, in the same setting: the value for `CC(O)(CN1CCCC1)c1cc(F)c2c(c1)C(=O)N(Cc1ccc(C#N)cn1)[C@@]2(OCC1(C#N)CC1)c1ccc(Cl)cc1` (single isomer, unassigned) [Example 277] was 1.2 µM; that for `CN1CCN(CC(C)(O)c2cc(F)c3c(c2)C(=O)N(Cc2ccc(C#N)cn2)[C@@]3(OCC2(C#N)CC2)c2ccc(Cl)cc2)CC1` (single isomer, unassigned) [Example 278] was 2.6 µM.
On the same count and under the same terms, the value for `CN1CCN(CC(C)(O)c2cc(F)c3c(c2)C(=O)N(Cc2ccc(C#N)cn2)[C@@]3(OCC2(C#N)CC2)c2ccc(Cl)cc2)CC1` (single isomer, unassigned) [Example 279] was 0.57 µM; that for `CO[C@]1(c2ccc(Cl)cc2)c2c(F)cc(C(C)(O)C3CCN(C(=O)CN(C)C)CC3)cc2C(=O)N1Cc1ccc(Cl)cn1` (single isomer, unassigned) [Example 298] was 0.55 µM.
For the molecule `CO[C@]1(c2ccc(Cl)cc2)c2c(F)cc(C(C)(O)C3CCN(C(=O)CN(C)C)CC3)cc2C(=O)N1Cc1ccc(Cl)cn1` (single isomer, unassigned) [Example 299], the IC50 under setting [2] was 2 µM.
As to `CO[C@]1(c2ccc(Cl)cc2)c2c(F)cc(C(C)(O)C3CCS(=O)(=O)CC3)cc2C(=O)N1Cc1ccc(Cl)cn1` (single isomer, unassigned) [Example 311], the IC50 under setting [1] is 0.25 µM.
Turning to `CC(O)(c1cc(F)c2c(c1)C(=O)N(Cc1ccc(Cl)cn1)[C@@]2(OCCO)c1ccc(Cl)cc1)C1CCS(=O)(=O)CC1` (single isomer, unassigned) [Example 313], the IC50 under setting [1] was 0.95 µM.
On to `CC(O)(c1cc(F)c2c(c1)C(=O)N(Cc1ccc(Cl)cn1)[C@@]2(OCCO)c1ccc(Cl)cc1)C1CCS(=O)(=O)CC1` (single isomer, unassigned) [Example 314], for which, where the note is “SJSA-1, Protocol B, at 10 μM”, the “SJSA1 (Protocol B) % at stated concentration” value is given as 66% at 10.
As for `Cc1nc(C(C)(O)c2cc(F)c3c(c2)C(=O)N(Cc2ccc(Cl)cn2)[C@@]3(OCC2(O)CC2)c2ccc(Cl)cc2)cn1C` (single isomer, unassigned) [Example 324], under setting [2], the half-inhibitory concentration (IC50) was 2.2 µM.
For `Cc1nc(C(C)(O)c2cc(F)c3c(c2)C(=O)N(Cc2ccc(Cl)cn2)[C@@]3(OCC2(O)CC2)c2ccc(Cl)cc2)cn1C` (single isomer, unassigned) [Example 325], the half-maximal inhibitory concentration (IC50) under setting [2] is 0.24 µM.
Take `CCC(O)(c1cc(F)c2c(c1)C(=O)N(Cc1ccc(C#N)cn1)[C@@]2(OCC1(CO)CC1)c1ccc(Cl)cc1)c1cn(C)cn1` (single isomer, unassigned) [Example 337]: the IC50 (read-out: SJSA1 IC50, Protocol B, SJSA-1) amounted to 0.058 µM.
Take `Cn1cc(C(C)(O)c2cc(F)c3c(c2)C(=O)N(Cc2ncc(Cl)cn2)[C@@]3(OCC2(CO)CC2)c2ccc(Cl)cc2)cn1` (single isomer, unassigned) [Example 348]: under setting [2], the IC50 came out at 0.27 µM.
On to `Cn1cc(C(C)(O)c2cc(F)c3c(c2)C(=O)N(Cc2ncc(Cl)cn2)[C@@]3(OCC2(CO)CC2)c2ccc(Cl)cc2)cn1` (single isomer, unassigned) [Example 349], for which the IC50 under setting [2] is 0.028 µM.
On to `Cn1cc(C(C)(O)c2cc(F)c3c(c2)C(=O)N(Cc2ccc(C#N)cn2)[C@@]3(O[C@H]2C[C@@H](O)C2)c2ccc(Cl)cc2)cn1` (single isomer, unassigned) [Example 355, 6-{[1-(4-chlorophenyl)-7-fluoro-5-[1-hydroxy-1-(1-methyl-1H-pyrazol-4-yl)ethyl]-3-oxo-1-[cis-3-hydroxycyclobutoxy]-2,3-dihydro-1H-isoindol-2-yl]methyl}pyridine-3-carbonitrile], for which, under setting [2], the IC50 is 4.7 µM.
The same measure, in the same setting: the value for `Cn1cc(C(C)(O)c2cc(F)c3c(c2)C(=O)N(Cc2ccc(C#N)cn2)[C@@]3(O[C@H]2C[C@@H](O)C2)c2ccc(Cl)cc2)cn1` (single isomer, unassigned) [Example 356, 6-{[1-(4-chlorophenyl)-7-fluoro-5-[1-hydroxy-1-(1-methyl-1H-pyrazol-4-yl)ethyl]-3-oxo-1-[cis-3-hydroxycyclobutoxy]-2,3-dihydro-1H-isoindol-2-yl]methyl}pyridine-3-carbonitrile] was 0.96 µM.

The IC50 is the midpoint of a concentration-inhibition curve.
